According to the NIST ThermoML archive (doi:10.1016/j.jct.2012.05.009):
± gives the expanded uncertainty stated by the source.

Assay: mn = molality of the nth substance listed, in mol/kg
Conditions: 101 kPa, Liquid, Vibrating tube method

Compound `CC(=O)CCCCn1c(=O)c2c(ncn2C)n(C)c1=O` [3,7-dimethyl-1-(5-oxohexyl)-3,7-dihydro-1H-purine-2,6-dione] + O has a mass density (293.15 K, m1 = 0.09736) of 1003.77 ± 0.036 kg/m3, a mass density (293.15 K, m1 = 0.0976) of 1003.77 ± 0.036 kg/m3 and a mass density (293.15 K, m1 = 0.09842) of 1003.81 ± 0.037 kg/m3. It also gave a mass density (293.15 K, m1 = 0.09851) of 1003.83 ± 0.037 kg/m3, a mass density (293.15 K, m1 = 0.1012) of 1003.97 ± 0.036 kg/m3 and a mass density (298.15 K, m1 = 0.09736) of 1002.51 ± 0.038 kg/m3. For the same compound, the mass density (298.15 K, m1 = 0.0976) was 1002.51 ± 0.036 kg/m3, the mass density (298.15 K, m1 = 0.09842) was 1002.55 ± 0.057 kg/m3 and the mass density (298.15 K, m1 = 0.09851) was 1002.57 ± 0.043 kg/m3. It also gave a mass density (298.15 K, m1 = 0.1012) of 1002.7 ± 0.036 kg/m3, a mass density (303.15 K, m1 = 0.09736) of 1001.02 ± 0.037 kg/m3 and a mass density (303.15 K, m1 = 0.0976) of 1001.02 ± 0.035 kg/m3. The mass density (303.15 K, m1 = 0.09842) was 1001.06 ± 0.054 kg/m3, the mass density (303.15 K, m1 = 0.09851) was 1001.08 ± 0.041 kg/m3 and the mass density (303.15 K, m1 = 0.1012) was 1001.21 ± 0.035 kg/m3. For the same compound, the mass density (308.15 K, m1 = 0.09736) was 999.319 ± 0.035 kg/m3, the mass density (308.15 K, m1 = 0.0976) was 999.32 ± 0.035 kg/m3 and the mass density (308.15 K, m1 = 0.09842) was 999.356 ± 0.037 kg/m3. It also gave a mass density (308.15 K, m1 = 0.09851) of 999.381 ± 0.037 kg/m3 and a mass density (308.15 K, m1 = 0.1012) of 999.508 ± 0.035 kg/m3.
